We go through eight compounds from publication PMC4792136, “A generic screening platform for inhibitors of virus induced cell fusion using cellular electrical impedance” (Scientific Reports, 2016).

Assay [1] concerns the target T1, RSV F protein (Human respiratory syncytial virus A, UniProt P03420).
T1 construct: expressed in transfected cells; host or cells: Cos7 cells (transiently transfected), co-plated with BsrT7 cells
The experiment in a line: recombinant F CEI fusion assay, 384-well. In kind it is cell-based. The source says:
(§1) Impedance assays were setup in parallel to microscopy based fluorescent protein cytoplasmic mixing and cell content mixing T7 driven fusion assays. For testing small molecule inhibitors see cell content mixing, T7 driven reporter fusion assay protocol for cell infection, transfection and plating method. All other steps were as listed below.
(§2) Cos7-G cells were transfected with the RSV F expression vector (pCICO-Fopt) in 6 well plates using lipofectamine LTX as per manufacturer’s instructions (Invitrogen) or infected with RSV (MOI of 2). Four hours post infection/transfection, cells were trypsinized and re-suspended to 8 × 10^5 cells/ml. E-Plates were pre-blanked and Cos7-G and Cos7-R cells were seeded together at a 1:1 ratio for a final cell density of 5 × 10^4 cells/well. Plates were placed into the SP station, incubated at 37 °C in 5% CO2 and impedance was recorded every 15 min over 72 h.
(§3) 384-well fusion assays were setup as per 96-well protocol with the following changes: Cos7 and BsrT7 cells were seeded at a final concentration of 1 × 10^4 cells/well. Compound titration was performed in a Biomek NX Laboratory Automation Workstation and added to a final volume of 25 μl/well. Luciferase activity was determined using an EnVision Multilabel reader (PerkinElmer).

The target of assay [2] is T1, RSV F protein. The experiment in a line: Cell content mixing T7 luciferase fusion assay, recombinant F, 384-well. In kind it is cell-based. As to the method: (§4) The protocol is an adaptation of that described by Bagai and Lamb[29]. Cos7 cells were transfected with a plasmid containing Renilla luciferase under T7 promoter control (pGL80-T7RL) and an RSV F expression vector. For live virus fusion assay, transfection media was removed after 2 h and replaced with SF media containing RSV (MOI of 2). Two h post infection (4 h post initial transfection) cells were trypsinized and re-suspended to 8 × 10^5 cells/ml. Compounds were serially diluted in SF Opti-MEM media and added to opaque bottom, white microtitre plates (Corning) at 50 μl/well along with 25 μl of both Cos7 and BsrT7 cells added to each well to obtain a final concentration of 5 × 10^4 cells/well. After 24 h, media was exchanged with 50 μl/well Opti-MEM media supplemented with 2% FBS and 8 ng/ml Enduren Live Cell Substrate (Promega). After 6 h at 37 °C in a humidified incubator supplemented with 5% CO2, the plates were read using a Lucy 2 luminometer with 1 sec integration time. Assays were performed in triplicate.
as §3

Assay [3] has as its target T1, RSV F protein. As to the kind of experiment: Cell content mixing T7 luciferase fusion assay, recombinant F, 96-well. It is filed as cell-based. As to the method:
as §4

Assay [4] deals with RSV. Also noted: method as in earlier work. The conditions noted are these: HEp-2 cells, MOI 0.2, 48 h, MTT; CPE data supplied by Biota Pharmaceuticals ref 35; cited from earlier work.
In assay [5] the test system is RSV. As to the kind of experiment: RSV CEI fusion assay, live virus, 96-well. The conditions noted are these: for IC50: human respiratory syncytial virus, read-out: RSV CEI 96 IC50. In kind it is cell-based, respiratory syncytial virus.
Description: as §1, §2, §4

The test system of assay [6] is RSV. As to the kind of experiment: Plaque-reduction neutralization (PRNT) assay, RSV. In kind it is cell-based. The conditions noted are these: human respiratory syncytial virus; RSV on vero cells; in Table S1 printed as ± followed by a range.
The target of assay [7] is T1, RSV F protein. As to the kind of experiment: recombinant F CEI fusion assay, 96-well. In kind it is cell-based. The conditions noted are these: cells transfected with noncoding empty vector (eV).
Description: as §1, §2
The protocol is an adaptation of that described by Bagai and Lamb[29]. Cos7 cells were transfected with a plasmid containing Renilla luciferase under T7 promoter control (pGL80-T7RL) and an RSV F expression vector. For live virus fusion assay, transfection media was removed after 2 h and replaced with SF media containing RSV (MOI of 2). […] After 6 h at 37 °C in a humidified incubator supplemented with 5% CO2, the plates were read using a Lucy 2 luminometer with 1 sec integration time. […]

T1 sequence (P03420 137-574): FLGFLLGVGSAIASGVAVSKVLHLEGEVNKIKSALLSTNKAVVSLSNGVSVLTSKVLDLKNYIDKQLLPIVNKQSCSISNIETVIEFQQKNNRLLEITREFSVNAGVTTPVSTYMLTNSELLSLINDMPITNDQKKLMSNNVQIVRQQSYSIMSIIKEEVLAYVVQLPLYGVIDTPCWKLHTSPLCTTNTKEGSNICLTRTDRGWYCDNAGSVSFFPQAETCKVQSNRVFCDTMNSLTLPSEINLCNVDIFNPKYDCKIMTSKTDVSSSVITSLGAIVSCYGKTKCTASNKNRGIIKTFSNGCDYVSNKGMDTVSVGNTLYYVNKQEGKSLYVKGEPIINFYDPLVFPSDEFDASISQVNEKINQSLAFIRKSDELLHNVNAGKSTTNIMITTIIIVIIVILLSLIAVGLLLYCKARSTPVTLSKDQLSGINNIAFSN
T1 sequence (P03420 26-109): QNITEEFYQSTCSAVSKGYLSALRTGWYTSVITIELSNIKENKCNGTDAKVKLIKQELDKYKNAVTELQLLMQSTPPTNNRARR

With `O=C(c1ccc(F)cc1)N1CCN2C(=O)c3ccncc3C12c1ccc(Cl)cc1` (centres unmarked) [BTA-1], the IC50 – broadly, the midpoint of a concentration-inhibition curve – on RSV F protein [1] was 6310 nM; on RSV F protein [2], 158000 nM; at RSV F protein [3] it was 3980 nM; with RSV [5] it was 398 nM. In addition, the “CPE EC50” value in the assay on RSV [4] is -6.5 log10 M.
On to `O=C(c1ccoc1)N1CCN2C(=O)c3ccncc3[C@]12c1ccc(Cl)cc1` [BTA-2], for which the IC50 at RSV F protein [1] is 251 nM; on RSV F protein [2], 2510 nM; at RSV F protein [3] it was 158 nM; in the assay with RSV [5] it was 20 nM. Also, the “CPE EC50” value with RSV [4] is recorded as -7.9 log10 M.
For the compound `O=C(c1ccc(F)cc1)N1CCN2C(=O)c3cc[n+]([O-])cc3C12c1ccc(Cl)cc1` (centres unmarked) [BTA-3], the IC50 was 1000 nM on RSV F protein [1], 31600 nM at RSV F protein [2], 2510 nM at RSV F protein [3] and 200 nM in the assay with RSV [5]. For the same compound, the “CPE EC50” value with RSV [4] is recorded as -6.8 log10 M.
In the case of `O=C(c1ccoc1)N1CCN2C(=O)c3cc[n+]([O-])cc3[C@]12c1ccc(Cl)cc1` [BTA-4], the IC50 on RSV F protein [1] was 2510 nM; on RSV F protein [2], 7940 nM; on RSV F protein [3], 1000 nM; in the assay with RSV [5], 39.8 nM. Moreover, in the assay with RSV [4], the “CPE EC50” value was -7.6 log10 M.
`Cc1ocnc1C(=O)N1CCN2C(=O)c3ccncc3[C@@]21c1ccc(Cl)cc1` [BTA-5]: the IC50 on RSV F protein [1] was 2510 nM; on RSV F protein [2], 79400 nM; on RSV F protein [3], 12600 nM; in the assay with RSV [5], 501 nM. Also, the “CPE EC50” value in the assay on RSV [4] is given as -6.6 log10 M.
With `Cc1ocnc1C(=O)N1CCN2C(=O)c3ccncc3C21C1CCOCC1` (centres unmarked) [BTA-6], the IC50 on RSV F protein [1] was 200 nM; at RSV F protein [2], 1000 nM; at RSV F protein [3], 39.8 nM; with RSV [5], 5.01 nM. Moreover, the “CPE EC50” value with RSV [4] was -8.5 log10 M.
In the case of `O=C1c2ccncc2[C@@]2(c3ccc(Cl)cc3)N1CCN2C(=O)C1CC1` [BTA-7], the IC50 was 12600 nM on RSV F protein [1], 39800 nM at RSV F protein [3] and 794 nM in the assay on RSV [5]. In the assay on RSV [4], the “CPE EC50” value is reported as -5.8 log10 M.
In the case of `Cc1ccc(CCCO)c(NCc2ccc3nc(NCCCN4CCOCC4)n(Cc4nc(C)ccc4O)c3c2)c1` [TMC-353121], the IC50 with RSV [6] was 5.8 nM; in the assay on RSV [5] it was 0.794 nM. Moreover, on RSV F protein [7], the “effect on cell impedance of control cells” value is “No effect on cell impedance”. Also, the “change in cell impedance of control cells” value with RSV [5] (control (uninfected) cells) is on record as “No change in cell impedance”.
